Values after ≈ are worked out from the molar mass of the structure shown. Active and inactive are the calls of the source. The calls are words filed in the database; no cut-off is given here.
Assays:
Cryptococcus neoformans = test: Growth inhibition of Cryptococcus neoformans var. grubii at 32 ug/ml; format: functional; conditions: read-out: GI
[1] = Octanol/water partition coefficient , logP of the compound; format: physicochemical
[2] = test system: Mycobacterium tuberculosis; test: Antimicrobial activity against Mycobacterium tuberculosis H37Rv in presence of 0.15 ng/ml anhydrotetracycline-induced guaB2 gene silencing by alamar blue assay; format: functional
[3] = Inhibition of Mycobacterium tuberculosis GuaB2
Escherichia coli = test: Growth inhibition of Escherichia coli at 32 ug/ml; format: functional; conditions: read-out: GI
Candida albicans = test: Growth inhibition of Candida albicans at 32 ug/ml; format: functional; conditions: read-out: GI
[4] = test system: Mycobacterium tuberculosis; test: Antimicrobial activity against Mycobacterium tuberculosis H37Rv in presence of 0.31 ng/ml anhydrotetracycline-induced guaB2 gene silencing by alamar blue assay; format: functional
[5] = test system: Mycobacterium tuberculosis; test: Antimicrobial activity against Mycobacterium tuberculosis SRMV2.6 H37Rv by alamar blue assay; format: functional
Klebsiella pneumoniae = test: Growth inhibition of Klebsiella pneumoniae at 32 ug/ml; format: functional; conditions: read-out: GI
[6] = molecular target: Inosine-5'-monophosphate dehydrogenase 2 (Homo sapiens) (UniProt P12268); test: Inhibition of human IMPDH2 at 10 uM
Sequence of Inosine-5'-monophosphate dehydrogenase 2 (Homo sapiens) (P12268 2-514 limits assumed): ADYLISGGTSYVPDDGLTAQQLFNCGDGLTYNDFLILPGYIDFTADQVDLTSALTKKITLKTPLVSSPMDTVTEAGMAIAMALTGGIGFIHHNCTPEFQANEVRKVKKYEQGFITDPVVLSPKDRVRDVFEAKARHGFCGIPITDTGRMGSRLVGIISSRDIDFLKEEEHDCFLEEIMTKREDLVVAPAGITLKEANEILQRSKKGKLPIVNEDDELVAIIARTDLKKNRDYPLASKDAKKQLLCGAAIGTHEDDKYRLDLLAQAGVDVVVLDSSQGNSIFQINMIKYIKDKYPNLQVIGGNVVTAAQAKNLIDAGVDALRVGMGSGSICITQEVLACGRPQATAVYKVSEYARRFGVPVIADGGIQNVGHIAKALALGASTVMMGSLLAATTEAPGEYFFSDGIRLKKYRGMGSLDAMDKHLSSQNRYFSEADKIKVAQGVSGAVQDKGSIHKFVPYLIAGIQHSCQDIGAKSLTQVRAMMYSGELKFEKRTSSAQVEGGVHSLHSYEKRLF

[7] = test system: Mycobacterium tuberculosis; test: Antimicrobial activity against Mycobacterium tuberculosis H37Rv by alamar blue assay; format: functional
Pseudomonas aeruginosa = test: Growth inhibition of Pseudomonas aeruginosa at 32 ug/ml; format: functional; conditions: read-out: GI
Staphylococcus aureus = test: Growth inhibition of methicillin-resistant Staphylococcus aureus at 32 ug/ml; format: functional; conditions: read-out: GI
Acinetobacter baumannii = test: Growth inhibition of Acinetobacter baumannii at 32 ug/ml; format: functional; conditions: read-out: GI
[8] = test system: Mycobacterium tuberculosis; test: Inhibition of Mycobacterium tuberculosis GuaB2 at 50 uM
[9] = test system: Mycobacterium tuberculosis; test: Antimicrobial activity against Mycobacterium tuberculosis H37Rv in presence of 0.08 to 5 ng/ml anhydrotetracycline-induced guaB2 gene silencing by alamar blue assay; format: functional, organism-based

Compound O=C(Cc1ccc(F)c2ccccc12)Nc1ccc2c(c1)COC2=O has an inhibition of growth at 32 µg/mL (Cryptococcus neoformans) of -49.8%, a logP [1] of 2.5 to 3.5 and an MIC [2] of 12.5 µM. For the same compound, the IC50 [3] was 3.04 µM, the inhibition of growth at 32 µg/mL (Escherichia coli) was -4.49% and the inhibition of growth at 32 µg/mL (Candida albicans) was 5.47%. For the same compound, the MIC [4] was 12.5 µM, the MIC90 [5] was 100 µM (≈ 33.5 µg/mL) and the inhibition of growth at 32 µg/mL (Klebsiella pneumoniae) was 13.4%. The inhibition [6] was 0.1%, the MIC90 [7] was 100 µM (≈ 33.5 µg/mL) and the inhibition of growth at 32 µg/mL (Pseudomonas aeruginosa) was -3.45%. The inhibition of growth at 32 µg/mL (Staphylococcus aureus) was 2.37%, the inhibition of growth at 32 µg/mL (Acinetobacter baumannii) was -2.02% and the inhibition [8] was 99.9%. For the same compound, the Activity [9] was “Active”.

Reference: ChEMBL document CHEMBL4190383, “Hit discovery of Mycobacterium tuberculosis inosine 5'-monophosphate dehydrogenase, GuaB2, inhibitors” (Bioorg Med Chem Lett, 2018)
